Test results as given in patent US11987646B2, “Immunomodulatory peptides” (Leidos, Inc., priority 2020, dated 2024).

Columns and labels:
[1] = test system: Pan02 (pancreatic adenocarcinoma) cells; test: Pan02 tumor model; type: in vivo, mice; conditions: intra-tumorally 2× a week, 50 μg dose, normalized to day 0, Mann-Whitney test
Method: Mice were injected subcutaneously with 3×10^6 Pan02 (pancreatic adenocarcinoma) cells in the right rear flank. Tumor volumes were measured at least twice weekly in two dimensions using a caliper. When the mean tumor size reached approximately 80-120 mm^3, mice were randomized and treatment was started. FoLD04 was administered intra-tumorally 2× a week (50 μg dose). Monoclonal antibodies were administered intraperitoneally 2× a week (5 mg/kg (anti-CTLA4) and 10 mg/kg (anti-PD1) dose).
Tumor volumes were measured on day 4, 7, 11, 14, 18, 21, 25 and 27 (end of study) and normalized to day 0 values for each animal. Statistical test used: Unpaired, non-parametric, two-tailed Mann-Whitney test.
Control used: intra-tumor injection of DMSO diluted in PBS (for FoLD04 injected intra-tumorally).

PD1 = molecular target: T1, PD1 (Homo sapiens, UniProt Q15116); test: PATHHUNTER checkpoint signaling assay (PD1 activation / SHP1 recruitment); type: cell-based; conditions: Jurkat cells expressing PD1 and SHP1 co-incubated with PDL1-presenting U2OS cells, 2 h RT; peptides at 20 μM and 100 μM, in duplicate; FIG. 1
T1 construct: host or cells: Jurkat cells (PD1 and SHP1 EFC fusions), co-cultured with PDL1-presenting U2OS cells
T1 sequence (Q15116 25-288): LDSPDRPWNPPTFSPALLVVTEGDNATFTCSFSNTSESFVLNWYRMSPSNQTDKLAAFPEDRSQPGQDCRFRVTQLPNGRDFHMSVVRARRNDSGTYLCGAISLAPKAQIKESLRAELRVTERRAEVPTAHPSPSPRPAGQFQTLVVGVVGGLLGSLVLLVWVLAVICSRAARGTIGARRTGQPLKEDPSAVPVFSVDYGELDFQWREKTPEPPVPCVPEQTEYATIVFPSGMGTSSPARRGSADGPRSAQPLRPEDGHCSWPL
Method: Peptides were tested for their ability to inhibit the binding of PDL1 to PD1 using PATHHUNTER® checkpoint signaling assays (DiscoverX).
Jurkat cells expressing PD1 and SHP1 proteins, each fused to a fragment of enzyme fragment complementation (EFC) system, were co-incubated with PDL1-presenting U2OS cells. […] Inhibitory peptides or antibodies added to the culture would reduce the light signal.
Cells in co-culture were incubated at room temperature (RT) for 2 h (PD1 assay). The assay signal was generated using the PATHHUNTER® Bioassay Detection kit. FoLD01 (SEQ ID NO:1), LD10 (SEQ ID NO:5), and LD12 (SEQ ID NO:6) peptides were tested in duplicate at two concentrations, 20 μM and 100 μM. Peptides were dissolved in water or DMSO and diluted in assay buffer.
Microplates were read following signal generation using a PerkinElmer ENVISION™ instrument for chemiluminescent signal detection. The percentage of inhibition efficacy was calculated using the following formula, in which “RLU” means relative light units: […]

[2] = test system: IFNγ-secreting antigen-specific CD8+ T cells; test: AdPyCS mouse model, IFNγ ELISPOT of spleen cells; type: in vivo; conditions: mice immunized i.m. with AdPyCSP, peptide subcutaneously 1 μg, 10 μg; spleens ten days post-injection; relative to AdPyCS-only; one-way ANOVA; FIG. 2
Method: Groups of five mice were immunized intramuscularly with a recombinant replication defective adenovirus expressing the Plasmodium yoelli circumsporozoite protein (AdPyCSP) and then treated subcutaneously with peptides LD10da ([…], in which the first amino acid is a D-amino acid, 1 μg), FoLD01 (1 μg, 10 μg), or an anti-PD1 monoclonal antibody (10 μg). Ten days post-injection, mice were euthanized and individual spleens removed. The number of IFNγ-secreting antigen-specific CD8+ T cells were determined using an ELISPOT assay (FIG. 2).

[3] = test system: MC38 (colon carcinoma) cells; test: MC38 tumor model; type: in vivo, mice; conditions: intra-tumorally 2× a week, 50 μg dose, normalized to day 0, Mann-Whitney test, P value 0.0499
Method: Mice were injected subcutaneously with 1×10^6 MC38 (colon carcinoma) cells and tumor volumes were measured on day 2, 5, 9, 12, and 16 (end of study) and normalized to day 0 values for each animal. When the mean tumor size reached approximately 80-120 mm^3, mice were randomized and treatment was started. Peptides were tested in an MC38 tumor model. FoLD01 peptide was administered intra-tumorally 2× a week (50 μg dose). Monoclonal antibodies were administered intraperitoneally 2× a week (5 mg/kg (anti-CTLA4) and 10 mg/kg (anti-PD1) dose). Statistical test used: Unpaired, non-parametric, two-tailed Mann-Whitney test. Control used: intra-tumor injection of DMSO diluted in PBS (for FoLD01 injected intra-tumorally).

Substance | tumor volume relative to DMSO/PBS IT control [1] | inhibition of PD1-PDL1 interaction (percentage of inhibition efficacy) (PD1) | number of IFNγ-secreting antigen-specific CD8+ T cells [2] | tumor volume relative to intra-tumoral DMSO/PBS control [3]
FoLD04: peptide, amino acid sequence QVSALRVNILF (SEQ ID NO:4) (listed as Fusarium oxysporum) | significantly decreased tumor volume |  |  | 
FoLD01: peptide, amino acid sequence STNQVSALRVNILFPLSQ (SEQ ID NO:1) (FoLD01 peptide) |  | inhibited PD1-PDL1 interaction to a greater extent than peptides LD10 and LD12 | enhances the number of antigen-specific CD8+ T cells relative to stimulation with antigen only | significantly decreased tumor volume
